From ChEMBL document CHEMBL2434921, “New synthetic aliphatic sulfonamido-quaternary ammonium salts as anticancer chemotherapeutic agents” (2013)
The source made the active and inactive calls. The rule behind the calls is not given here.

What was measured:
MDA-MB-231 [1] = assay: Growth of human MDA-MB-231 cells at 3 uM after 48 hrs by SRB assay; values are per cent of control; conditions: MDA-MB-231, 48 h
PC-3 [2] = assay: Growth inhibition of human PC3 cells at 0.1 uM after 48 hrs by SRB assay; values are per cent of control; conditions: PC-3, 48 h
ACHN [3] = assay: Growth of human ACHN cells at 10 uM after 48 hrs by SRB assay
MDA-MB-231 [4] = assay: Growth of human MDA-MB-231 cells at 0.1 uM after 48 hrs by SRB assay; conditions: MDA-MB-231, 48 h
ACHN [5] = assay: Growth of human ACHN cells at 0.3 uM after 48 hrs by SRB assay
PC-3 [6] = assay: Growth inhibition of human PC3 cells after 48 hrs by SRB assay; assay type: functional; conditions: PC-3, 48 h
NCI-H23 [7] = assay: Growth inhibition of human NCI-H23 cells at 3 uM after 48 hrs by SRB assay; values are per cent of control; conditions: NCI-H23, 48 h
PC-3 [8] = assay: Growth inhibition of human PC3 cells at 1 uM after 48 hrs by SRB assay; values are per cent of control; conditions: PC-3, 48 h
ACHN [9] = assay: Growth inhibition of human ACHN cells after 48 hrs by SRB assay; assay type: functional
[10] = target: Rho-related GTP-binding protein RhoB (Homo sapiens) (UniProt P62745); assay: Transactivation of RhoB (unknown origin) transfected in human HeLa cells at 5 uM measured over 10 secs by dual luciferase reporter gene assay; assay type: cell-based
Chain of Rho-related GTP-binding protein RhoB (Homo sapiens) (P62745 whole entry): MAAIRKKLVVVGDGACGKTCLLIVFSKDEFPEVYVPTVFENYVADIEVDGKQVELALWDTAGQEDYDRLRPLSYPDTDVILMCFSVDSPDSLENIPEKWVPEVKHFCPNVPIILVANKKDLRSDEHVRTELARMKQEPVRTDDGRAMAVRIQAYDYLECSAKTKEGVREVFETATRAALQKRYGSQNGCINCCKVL

NUGC-3 [11] = assay: Growth inhibition of human NUGC3 cells at 3 uM after 48 hrs by SRB assay; values are per cent of control; conditions: NUGC-3, 48 h
ACHN [12] = assay: Growth of human ACHN cells at 0.1 uM after 48 hrs by SRB assay
HCT-15 [13] = assay: Growth inhibition of human HCT15 cells at 1 uM after 48 hrs by SRB assay; values are per cent of control; conditions: HCT-15, 48 h
NUGC-3 [14] = assay: Growth inhibition of human NUGC3 cells at 10 uM after 48 hrs by SRB assay; values are per cent of control; conditions: NUGC-3, 48 h
NCI-H23 [15] = assay: Growth of human NCI-H23 cells at 10 uM after 48 hrs by SRB assay; conditions: NCI-H23, 48 h
HCT-15 [16] = assay: Growth inhibition of human HCT15 cells at 10 uM after 48 hrs by SRB assay; values are per cent of control; conditions: HCT-15, 48 h
HCT-15 [17] = assay: Growth inhibition of human HCT15 cells at 0.1 uM after 48 hrs by SRB assay; values are per cent of control; conditions: HCT-15, 48 h
MDA-MB-231 [18] = assay: Growth inhibition of human MDA-MB-231 cells at 0.3 uM after 48 hrs by SRB assay; values are per cent of control; conditions: MDA-MB-231, 48 h
PC-3 [19] = assay: Growth inhibition of human PC3 cells at 3 uM after 48 hrs by SRB assay; values are per cent of control; conditions: PC-3, 48 h
NCI-H23 [20] = assay: Growth of human NCI-H23 cells at 0.3 uM after 48 hrs by SRB assay; conditions: NCI-H23, 48 h
NUGC-3 [21] = assay: Growth of human NUGC3 cells at 0.1 uM after 48 hrs by SRB assay; conditions: NUGC-3, 48 h
MDA-MB-231 [22] = assay: Growth of human MDA-MB-231 cells at 1 uM after 48 hrs by SRB assay; conditions: MDA-MB-231, 48 h
NUGC-3 [23] = assay: Growth inhibition of human NUGC3 cells after 48 hrs by SRB assay; assay type: functional; conditions: NUGC-3, 48 h
NUGC-3 [24] = assay: Growth of human NUGC3 cells at 0.3 uM after 48 hrs by SRB assay; conditions: NUGC-3, 48 h
HCT-15 [25] = assay: Growth inhibition of human HCT15 cells after 48 hrs by SRB assay; assay type: functional
PC-3 [26] = assay: Growth of human PC3 cells at 10 uM after 48 hrs by SRB assay; conditions: PC-3, 48 h
ACHN [27] = assay: Growth inhibition of human ACHN cells at 3 uM after 48 hrs by SRB assay; values are per cent of control
HCT-15 [28] = assay: Growth of human HCT15 cells at 3 uM after 48 hrs by SRB assay; conditions: HCT-15, 48 h
NCI-H23 [29] = assay: Growth inhibition of human NCI-H23 cells after 48 hrs by SRB assay; assay type: functional; conditions: NCI-H23, 48 h
NUGC-3 [30] = assay: Growth of human NUGC3 cells at 1 uM after 48 hrs by SRB assay; conditions: NUGC-3, 48 h
NCI-H23 [31] = assay: Growth inhibition of human NCI-H23 cells at 1 uM after 48 hrs by SRB assay; values are per cent of control; conditions: NCI-H23, 48 h
ACHN [32] = assay: Growth inhibition of human ACHN cells at 1 uM after 48 hrs by SRB assay; values are per cent of control
PC-3 [33] = assay: Growth inhibition of human PC3 cells at 0.3 uM after 48 hrs by SRB assay; values are per cent of control; conditions: PC-3, 48 h
MDA-MB-231 [34] = assay: Growth of human MDA-MB-231 cells at 10 uM after 48 hrs by SRB assay; conditions: MDA-MB-231, 48 h
NCI-H23 [35] = assay: Growth inhibition of human NCI-H23 cells at 0.1 uM after 48 hrs by SRB assay; values are per cent of control; conditions: NCI-H23, 48 h
MDA-MB-231 [36] = assay: Growth inhibition of human MDA-MB-231 cells after 48 hrs by SRB assay; assay type: functional; conditions: MDA-MB-231, 48 h
HCT-15 [37] = assay: Growth of human HCT15 cells at 0.3 uM after 48 hrs by SRB assay; conditions: HCT-15, 48 h

| GI50 (PC-3 [6]) [nM] | GI50 (ACHN [9]) [nM] | Activity [10] | SMILES | growth, % of control at 3 µM (MDA-MB-231 [1]) [%] | growth, % of control at 0.1 µM (PC-3 [2]) [%] | growth, % of control at 10 µM (ACHN [3]) [%] | growth, % of control at 0.1 µM (MDA-MB-231 [4]) [%] | growth, % of control at 0.3 µM (ACHN [5]) [%] | growth, % of control at 3 µM (NCI-H23 [7]) [%] | growth, % of control at 1 µM (PC-3 [8]) [%] | growth, % of control at 3 µM (NUGC-3 [11]) [%] | growth, % of control at 0.1 µM (ACHN [12]) [%] | growth, % of control at 1 µM (HCT-15 [13]) [%] | growth, % of control at 10 µM (NUGC-3 [14]) [%] | growth, % of control at 10 µM (NCI-H23 [15]) [%] | growth, % of control at 10 µM (HCT-15 [16]) [%] | growth, % of control at 0.1 µM (HCT-15 [17]) [%] | growth, % of control at 0.3 µM (MDA-MB-231 [18]) [%] | growth, % of control at 3 µM (PC-3 [19]) [%] | growth, % of control at 0.3 µM (NCI-H23 [20]) [%] | other results |
| --- | --- | --- | --- | --- | --- | --- | --- | --- | --- | --- | --- | --- | --- | --- | --- | --- | --- | --- | --- | --- | --- |
| 460 | 2520 | Active | CCCCCCCCCCCCCCS(=O)(=O)NCC(C)(C)C[N+](C)(C)CC | 32.8 | 106 | 36.1 | 91.2 | 97.7 | 28.3 | 19.6 | 3.9 | 101 | 104 | -15.7 | -4 | 59.4 | 112 | 89.3 | -11.9 | 109 | growth, % of control at 0.1 µM (NUGC-3 [21]): 110%; growth, % of control at 1 µM (MDA-MB-231 [22]): 49.9%; GI50 (NUGC-3 [23]): 510 nM; growth, % of control at 0.3 µM (NUGC-3 [24]): 107%; GI50 (HCT-15 [25]): inactive; growth, % of control at 10 µM (PC-3 [26]): -26%; growth, % of control at 3 µM (ACHN [27]): 60.6%; growth, % of control at 3 µM (HCT-15 [28]): 91.6%; GI50 (NCI-H23 [29]): 730 nM; growth, % of control at 1 µM (NUGC-3 [30]): 33.8%; growth, % of control at 1 µM (NCI-H23 [31]): 52.9%; growth, % of control at 1 µM (ACHN [32]): 68.2%; growth, % of control at 0.3 µM (PC-3 [33]): 99.3%; growth, % of control at 10 µM (MDA-MB-231 [34]): 12.9%; growth, % of control at 0.1 µM (NCI-H23 [35]): 121%; GI50 (MDA-MB-231 [36]): 720 nM; growth, % of control at 0.3 µM (HCT-15 [37]): 111% |
| 520 | 1310 | Active | CCCCCCCCCCCCCCCCS(=O)(=O)N(C)CC[N+](CC)(CC)CC | 37.4 | 95.5 | 15.4 | 87.3 | 92.8 | 15.5 | 47.5 | 5.8 | 92.6 | 73.5 | -4 | 3.4 | 21.8 | 83 | 96.5 | 11.3 | 93.7 | growth, % of control at 0.1 µM (NUGC-3 [21]): 69.8%; growth, % of control at 1 µM (MDA-MB-231 [22]): 65.5%; GI50 (NUGC-3 [23]): 220 nM; growth, % of control at 0.3 µM (NUGC-3 [24]): 70.3%; GI50 (HCT-15 [25]; HCT-15, 48 h): 1610 nM; growth, % of control at 10 µM (PC-3 [26]): -21.4%; growth, % of control at 3 µM (ACHN [27]): 43.4%; growth, % of control at 3 µM (HCT-15 [28]): 50.9%; GI50 (NCI-H23 [29]): 550 nM; growth, % of control at 1 µM (NUGC-3 [30]): 19.6%; growth, % of control at 1 µM (NCI-H23 [31]): 44.3%; growth, % of control at 1 µM (ACHN [32]): 70.4%; growth, % of control at 0.3 µM (PC-3 [33]): 84.7%; growth, % of control at 10 µM (MDA-MB-231 [34]): 20%; growth, % of control at 0.1 µM (NCI-H23 [35]): 94%; GI50 (MDA-MB-231 [36]): 1170 nM; growth, % of control at 0.3 µM (HCT-15 [37]): 87.6% |
